Measured values: PMC7854729 (Nature Communications, 2021)
Where “and” joins values, the source holds several entries; their conditions need not be identical. Equal entries are not always repeated. Where two headings read alike, the source gives them in different places. Where a SMILES comes first, the peptide text is derived from it.

What was measured:
PLpro-WT = biological target: T1, PLpro-WT (Severe acute respiratory syndrome coronavirus 2, UniProt P0DTD1); format: biochemical
T1 construct: PLpro is a domain of Nsp3—a large multidomain protein; made in house; host or cells: E. coli BL21(DE3)-Gold

SARS-CoV-2 PLpro = SARS-CoV-2 PLpro (Severe acute respiratory syndrome coronavirus 2, UniProt P0DTD1); assay: biochemical; details: for PLpro assay signal (source data Figure 2, single replicates): listed as 6 (Snyder538)
SARS-CoV-2 = assay: microbe, parasite or virus in culture; format: cell-based, SARS-CoV-2 (nCoV/Washington/1/2020) in Vero E6 cells; details: for Percent Spike Positive Cells: relative to DMSO treated cells, single replicates

SMILES: CC(=O)N[C@@H](CC(C)C)C(=O)N[C@@H](CCCCN)C(=O)NCC(=O)NCC(=O)Nc1ccc2c(C)cc(=O)oc2c1 [probe] (HELM PEPTIDE1{[ac].L.K.G.G.[Cc1cc(=O)oc2cc(N[*:1])ccc12]}$$$$V2.0)
- fluorescence (PLpro-WT; 0.1 M PLP, time point 8): 103 and 110 and 118
- fluorescence normalised to probe only (PLpro-WT; 0.1 M PLP, time point 8): 2.146 and 2.292 and 2.458
- fluorescence (PLpro-WT; 0.1 M PLP, time point 9): 107 and 115 and 122
- fluorescence normalised to probe only (PLpro-WT; 0.1 M PLP, time point 9): 2.229 and 2.396 and 2.542
- fluorescence (PLpro-WT; 0.1 M PLP, time point 10): 111 and 120 and 127
- fluorescence normalised to probe only (PLpro-WT; 0.1 M PLP, time point 10): 2.3125 and 2.5 and 2.646
- fluorescence (PLpro-WT; 0.1 M PLP, time point 11): 115 and 124 and 132
- fluorescence normalised to probe only (PLpro-WT; 0.1 M PLP, time point 11): 2.396 and 2.583 and 2.75
- fluorescence (PLpro-WT; 0.1 M PLP, time point 12): 115 and 129 and 133
- fluorescence normalised to probe only (PLpro-WT; 0.1 M PLP, time point 12): 2.396 and 2.6875 and 2.771
- fluorescence (PLpro-WT; 0.1 M PLP, time point 13): 120 and 131 and 139
- fluorescence normalised to probe only (PLpro-WT; 0.1 M PLP, time point 13): 2.5 and 2.729 and 2.896
- fluorescence (PLpro-WT; 0.1 M PLP, time point 14): 123
- fluorescence normalised to probe only (PLpro-WT; 0.1 M PLP, time point 14): 2.5625 and 2.833 and 2.979
- fluorescence (PLpro-WT; 0.2 M PLP, time point 8): 260 and 288 and 278
- fluorescence normalised to probe only (PLpro-WT; 0.2 M PLP, time point 8): 5.417 and 6 and 5.792
- fluorescence (PLpro-WT; 0.2 M PLP, time point 9): 295 and 313 and 300
- fluorescence normalised to probe only (PLpro-WT; 0.2 M PLP, time point 9): 6.146 and 6.521 and 6.25
- fluorescence (PLpro-WT; 0.2 M PLP, time point 10): 321 and 335 and 319
- fluorescence normalised to probe only (PLpro-WT; 0.2 M PLP, time point 10): 6.6875 and 6.979 and 6.646
- fluorescence (PLpro-WT; 0.2 M PLP, time point 11): 337 and 357 and 345
- fluorescence normalised to probe only (PLpro-WT; 0.2 M PLP, time point 11): 7.021 and 7.4375 and 7.1875
- fluorescence (PLpro-WT; 0.2 M PLP, time point 12): 357 and 377 and 368
- fluorescence normalised to probe only (PLpro-WT; 0.2 M PLP, time point 12): 7.4375 and 7.854 and 7.667
- fluorescence (PLpro-WT; 0.2 M PLP, time point 13): 379 and 400 and 381
- fluorescence normalised to probe only (PLpro-WT; 0.2 M PLP, time point 13): 7.896 and 8.333 and 7.9375
- fluorescence normalised to probe only (PLpro-WT; 0.2 M PLP, time point 14): 8.167 and 8.792 and 8.417
- fluorescence (PLpro-WT; 0.3 M PLP, time point 8): 443 and 452 and 474
- fluorescence normalised to probe only (PLpro-WT; 0.3 M PLP, time point 8): 9.229 and 9.417 and 9.875
- fluorescence (PLpro-WT; 0.3 M PLP, time point 9): 481 and 493 and 520
- fluorescence normalised to probe only (PLpro-WT; 0.3 M PLP, time point 9): 10.0208 and 10.2708 and 10.8333
- fluorescence (PLpro-WT; 0.3 M PLP, time point 10): 519 and 530 and 558
- fluorescence normalised to probe only (PLpro-WT; 0.3 M PLP, time point 10): 10.8125 and 11.0417 and 11.625
- fluorescence (PLpro-WT; 0.3 M PLP, time point 11): 560 and 573 and 600
- fluorescence normalised to probe only (PLpro-WT; 0.3 M PLP, time point 11): 11.6667 and 11.9375 and 12.5
- fluorescence (PLpro-WT; 0.3 M PLP, time point 12): 594 and 609 and 643
- fluorescence normalised to probe only (PLpro-WT; 0.3 M PLP, time point 12): 12.375 and 12.6875 and 13.3958
- fluorescence (PLpro-WT; 0.3 M PLP, time point 13): 632 and 646 and 681
- fluorescence normalised to probe only (PLpro-WT; 0.3 M PLP, time point 13): 13.1667 and 13.4583 and 14.1875
- fluorescence (PLpro-WT; 0.3 M PLP, time point 14): 671 and 682 and 717
- fluorescence normalised to probe only (PLpro-WT; 0.3 M PLP, time point 14): 13.9792 and 14.2083 and 14.9375
- fluorescence (PLpro-WT; 0.5 M PLP, time point 8): 891 and 894 and 883
- fluorescence normalised to probe only (PLpro-WT; 0.5 M PLP, time point 8): 18.5625 and 18.625 and 18.3958
- fluorescence (PLpro-WT; 0.5 M PLP, time point 9): 972 and 978 and 964
- fluorescence normalised to probe only (PLpro-WT; 0.5 M PLP, time point 9): 20.25 and 20.375 and 20.0833
- fluorescence (PLpro-WT; 0.5 M PLP, time point 10): 1053 and 1058 and 1040
- fluorescence normalised to probe only (PLpro-WT; 0.5 M PLP, time point 10): 21.9375 and 22.0417 and 21.6667
- fluorescence (PLpro-WT; 0.5 M PLP, time point 11): 1137 and 1139 and 1118
- fluorescence normalised to probe only (PLpro-WT; 0.5 M PLP, time point 11): 23.6875 and 23.7292 and 23.2917
- fluorescence (PLpro-WT; 0.5 M PLP, time point 12): 1204 and 1214 and 1189
- fluorescence normalised to probe only (PLpro-WT; 0.5 M PLP, time point 12): 25.0833 and 25.2917 and 24.7708
- fluorescence (PLpro-WT; 0.5 M PLP, time point 13): 1275 and 1287 and 1260
- fluorescence normalised to probe only (PLpro-WT; 0.5 M PLP, time point 13): 26.5625 and 26.8125 and 26.25
- fluorescence (PLpro-WT; 0.5 M PLP, time point 14): 1338 and 1358 and 1327
- fluorescence normalised to probe only (PLpro-WT; 0.5 M PLP, time point 14): 27.875
- fluorescence (PLpro-WT; 1.0 M PLP, time point 8): 1812 and 1755 and 1796
- fluorescence normalised to probe only (PLpro-WT; 1.0 M PLP, time point 8): 37.75 and 36.5625 and 37.4167
- fluorescence (PLpro-WT; 1.0 M PLP, time point 9): 1958 and 1902 and 1937
- fluorescence normalised to probe only (PLpro-WT; 1.0 M PLP, time point 9): 40.7917 and 39.625 and 40.3542
- fluorescence (PLpro-WT; 1.0 M PLP, time point 10): 2101 and 2025 and 2064
- fluorescence normalised to probe only (PLpro-WT; 1.0 M PLP, time point 10): 43.7708 and 42.1875 and 43
- fluorescence (PLpro-WT; 1.0 M PLP, time point 11): 2228 and 2143 and 2197
- fluorescence normalised to probe only (PLpro-WT; 1.0 M PLP, time point 11): 46.4167 and 44.6458 and 45.7708
- fluorescence (PLpro-WT; 1.0 M PLP, time point 12): 2329 and 2259 and 2313
- fluorescence normalised to probe only (PLpro-WT; 1.0 M PLP, time point 12): 48.5208 and 47.0625 and 48.1875
- fluorescence (PLpro-WT; 1.0 M PLP, time point 13): 2450 and 2363 and 2423
- fluorescence normalised to probe only (PLpro-WT; 1.0 M PLP, time point 13): 51.0417 and 49.2292 and 50.4792
- fluorescence (PLpro-WT; 1.0 M PLP, time point 14): 2548 and 2459 and 2512

SMILES: Cc1ccc(NC(=O)Oc2ccc([N+](=O)[O-])cc2)cc1C(=O)N[C@H](C)c1cccc2ccccc12 [Compound 6, 5-(((4-nitrophenoxy)carbonyl)amino)-2-methyl-N-[(1R)-1-naphthalen-1-ylethyl]benzamide]
- PLpro assay signal (source data Figure 2, single replicates) (SARS-CoV-2 PLpro; Log(M) -3.30103): 62 and 61 and 69
- PLpro assay signal (source data Figure 2, single replicates) (SARS-CoV-2 PLpro; Log(M) -3.60206): 86 and 78 and 83
- PLpro assay signal (source data Figure 2, single replicates) (SARS-CoV-2 PLpro; Log(M) -4): 127 and 161 and 203
- PLpro assay signal (source data Figure 2, single replicates) (SARS-CoV-2 PLpro; Log(M) -4.30103): 120 and 170 and 193
- PLpro assay signal (source data Figure 2, single replicates) (SARS-CoV-2 PLpro; Log(M) -4.69897): 420 and 406 and 486
- PLpro assay signal (source data Figure 2, single replicates) (SARS-CoV-2 PLpro; Log(M) -5): 662 and 534 and 618
- PLpro assay signal (source data Figure 2, single replicates) (SARS-CoV-2 PLpro; Log(M) -5.39794): 926 and 988 and 896
- PLpro assay signal (source data Figure 2, single replicates) (SARS-CoV-2 PLpro; Log(M) -5.69897): 1105 and 1269 and 1030
- PLpro assay signal (source data Figure 2, single replicates) (SARS-CoV-2 PLpro; Log(M) -6.09691): 1318 and 1309 and 1349
- PLpro assay signal (source data Figure 2, single replicates) (SARS-CoV-2 PLpro; Log(M) -6.39794): 1380 and 1317 and 1379
- IC50 (SARS-CoV-2 PLpro; pH 7.3, read-out: IC50): 7 ± 0.6 µM
- inhibition of virus replication (SARS-CoV-2; Vero E6, SARS-CoV-2): inhibiting virus replication
- Percent Spike Positive Cells (SARS-CoV-2; [Drug] 0.1 uM): 92% and 115% (2×)
- Percent Spike Positive Cells (SARS-CoV-2; [Drug] 1 uM): 115%
- Percent Spike Positive Cells (SARS-CoV-2; [Drug] 10 uM): 46% and 69%
